In US20090232909A1, “Method for determining physiological effects of hemoglobin” (priority 1999, published 2009):

Target: Hb (Homo sapiens, UniProt P68871+P69905)
Experiment: EPR of iron nitrosyl-Hb formed by limiting NO with variously oxygenated Hb
Assay type: biochemical
Parameters: purchased Apex Bioscience (Research Triangle Park, N.C.)
Source text: To investigate the reaction of NO with oxyHb, we begin by adopting the conventional viewpoint that: NO consumption involves a competition between the oxidation reaction (Eq. 1) and the adduct-forming addition reaction (Eq. 2); and that the specific rate constants for these reactions, namely kox and kadd, are independent of the degree of oxygen saturation (Y) of the hemes.
[Fe(II)NO]/[NO]0=1−Y/[1−Y+κY] [4]
HbA0 was obtained from Apex Bioscience (Research Triangle Park, N.C.). Buffer exchange was achieved by dialysis. Deoxygenation was performed by gas exchange with argon in a tonometer. NO was added from a stock solution prepared under ultrapure helium and purified across alkali and cold traps. Stock solutions of NO were prepared in phosphate buffered saline containing 100 μM DTPA, pH 7.4. NO injections were made via a gas tight Hamilton syringe with Teflon seal. The concentration of NO in stock solutions was assayed by electrode and by a Sievers 280 NO analyzer (Boulder Colo.).
EPR spectroscopy was carried out with samples in 4-mm i.d. fused silica tubes, at 76° K, on a Varian E-9 spectrometer. UV-visible spectra were taken after NO addition. The sample was then placed in a deoxygenated EPR tube and plunged into liquid N2. EPR spectra of nitrosylHb or dinitrosyl iron complexes (DNICs) were recorded in a single 4-min. scan over 400 G on a Varian E-9 spectrometer operating at 9.274 GHz, with 10-mW microwave power, 10-20 G amplitude of field modulation at 100 kHz, and time constant of 0.250 sec. Spectra of high-spin metHb were recorded with a scan of 1000 G, 20 G modulation amplitude, time constant of 0.128 sec, under otherwise identical conditions. NitrosylHb was measured by double integration of EPR spectra and by comparison to EPR spectra of Hb(NO)4 standardized with UV-visible spectroscopy. The reproducibility of nitrosylHb measurements was estimated to be ±6% by repeated trials.
(A) EPR spectra of iron-nitrosyl Hb derivatives formed by incubation of 19 μM NO with 393 μM Hb at various degrees of oxygen saturation in 10 mM phosphate buffer, pH 7.4. […]

[N]=O [NO, nitric oxide]
decrease of K over the 0 to 80% range of oxygen saturation (10 mM phosphate): 7 fold | decrease of K by extrapolation (10 mM phosphate, at 90% saturation): 100 fold | K (κ = kox/kadd) from fit of Eq. 4 (100 mM phosphate, pH 7.4, average of the two curves): 1.40±0.06
